Test results taken from ChEMBL document CHEMBL1201862, “PubChem BioAssay data set” (2004).
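Protocol summary: plate cells (96-well), add compound at 5 concentrations, incubate 48 h, interpolate endpoints linearly. The concentration for 50% growth inhibition is given as GI50.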 Activity calls are given as the source filed them. No stated cut-off is given here; in the data, active = GI50 up to about 1.1 µM and inactive = higher.

Columns and labels:
Test in all cases: NCI anticancer screen, dose series, 48 h
A549 = system: A549
ACHN = system: ACHN
EKVX = system: EKVX
HCT-15 = system: HCT-15
KM12 = system: KM12
M14 = system: M14
MCF7 = system: MCF7
OVCAR-3 = system: OVCAR-3
OVCAR-5 = system: OVCAR-5
OVCAR-8 = system: OVCAR-8
SF-268 = system: SF-268
SF-539 = system: SF-539
SK-MEL-28 = system: SK-MEL-28
SK-MEL-2 = system: SK-MEL-2
SK-MEL-5 = system: SK-MEL-5
SNB-19 = system: SNB-19
SR = system: SR
SW-620 = system: SW-620
TK-10 = system: TK-10
U-251 = system: U-251

SMILES	GI50 (A549)	GI50 (ACHN)	GI50 (EKVX)	GI50 (HCT-15) [µM]	GI50 (KM12)	GI50 (M14)	GI50 (MCF7)	GI50 (OVCAR-3)	GI50 (OVCAR-5)	GI50 (OVCAR-8)	GI50 (SF-268)	GI50 (SF-539)	GI50 (SK-MEL-28)	GI50 (SK-MEL-2)	GI50 (SK-MEL-5)	GI50 (SNB-19)	GI50 (SR)	GI50 (SW-620)	GI50 (TK-10)	GI50 (U-251)
O=C1N[C@@H]2O[C@H](CNC(=O)c3cc(Br)c[nH]3)C[C@]2(O)N1.O=C1N[C@H]2O[C@H](CNC(=O)c3cc(Br)c[nH]3)C[C@@]2(O)N1	> 100 µM (inactive)	> 100 µM (inactive)	> 100 µM (inactive)	> 100	> 100 µM (inactive)	> 100 µM (inactive)	> 100 µM (inactive)	> 100 µM (inactive)	> 100 µM (inactive)	> 100 µM (inactive)	> 100 µM (inactive)	> 100 µM (inactive)	> 100 µM (inactive)	> 100 µM (inactive)	> 100 µM (inactive)	> 100 µM (inactive)	0.379 µM (active)	> 100 µM (inactive)	> 100 µM (inactive)	> 100 µM (inactive)
O=C(O)C1C2C=CC(O2)C1C(=O)Nc1ncccn1 (stereo not given)	> 100 µM (inactive)	> 100 µM (inactive)	> 100 µM (inactive)	> 100	> 100 µM (inactive)	> 100 µM (inactive)	> 100 µM (inactive)	> 100 µM (inactive)	> 100 µM (inactive)	> 100 µM (inactive)	> 100 µM (inactive)	> 100 µM (inactive)	> 100 µM (inactive)	> 100 µM (inactive)	> 100 µM (inactive)	> 100 µM (inactive)	> 100 µM (inactive)	> 100 µM (inactive)	> 100 µM (inactive)	> 100 µM (inactive)
CC1C(=O)C23OC[C@@]1(C)C1(O)CC[C@@H](C)[C@]21CC3=O (stereo not given in full)	> 100 µM (inactive)	> 100 µM (inactive)	> 100 µM (inactive)	> 100	> 100 µM (inactive)	> 100 µM (inactive)	> 100 µM (inactive)	> 100 µM (inactive)	> 100 µM (inactive)	> 100 µM (inactive)	> 100 µM (inactive)	> 100 µM (inactive)	> 100 µM (inactive)	> 100 µM (inactive)	> 100 µM (inactive)	> 100 µM (inactive)	> 100 µM (inactive)	> 100 µM (inactive)	> 100 µM (inactive)	> 100 µM (inactive)
CCN(CC)C(=O)CCCCCCCCC1CO1 (stereo not given)	> 100 µM (inactive)	> 100 µM (inactive)	> 100 µM (inactive)	> 100	> 100 µM (inactive)	> 100 µM (inactive)	> 100 µM (inactive)	> 100 µM (inactive)	> 100 µM (inactive)	> 100 µM (inactive)	> 100 µM (inactive)	> 100 µM (inactive)	> 100 µM (inactive)	> 100 µM (inactive)	> 100 µM (inactive)	> 100 µM (inactive)	> 100 µM (inactive)	> 100 µM (inactive)	> 100 µM (inactive)	> 100 µM (inactive)
O=c1[nH]c2ccccc2c(=O)n1/N=C/c1ccc(O)cc1	> 100 µM (inactive)	> 100 µM (inactive)	> 100 µM (inactive)	> 100	> 100 µM (inactive)	> 100 µM (inactive)	> 100 µM (inactive)	> 100 µM (inactive)	> 100 µM (inactive)	48.2 µM (inactive)	42.2 µM (inactive)	66.5 µM (inactive)	> 100 µM (inactive)	66.7 µM (inactive)	> 100 µM (inactive)	36 µM (inactive)	> 100 µM (inactive)	> 100 µM (inactive)	> 100 µM (inactive)	79.4 µM (inactive)
CSc1cc(-c2ccccn2)nc(-c2ccccn2)c1	0.137 µM (active)	0.0334 µM (active)	0.0906 µM (active)	0.0324	0.124 µM (active)	0.0695 µM (active)	0.324 µM (active)	0.0279 µM (active)	0.179 µM (active)	0.0845 µM (active)	0.0559 µM (active)	0.171 µM (active)	0.0736 µM (active)	0.552 µM (active)	0.126 µM (active)	0.564 µM (active)	0.0405 µM (active)	0.126 µM (active)	0.0401 µM (active)	0.0766 µM (active)
NC(CC1=CS(=O)(=O)c2ccc(Cl)cc21)C(=O)O (stereo not given)	> 100 µM (inactive)	> 100 µM (inactive)	> 100 µM (inactive)	> 100	> 100 µM (inactive)	> 100 µM (inactive)	92.3 µM (inactive)	> 100 µM (inactive)	> 100 µM (inactive)	> 100 µM (inactive)	> 100 µM (inactive)	> 100 µM (inactive)	> 100 µM (inactive)	> 100 µM (inactive)	> 100 µM (inactive)	> 100 µM (inactive)	> 100 µM (inactive)	> 100 µM (inactive)	> 100 µM (inactive)	> 100 µM (inactive)
